In patent US10328128B2, “Treatment of infection by human enterovirus D68” (priority 2014, dated 2019):
Like-named read-outs stand apart in the source and are kept apart here.

How the values were obtained:
[1] = test system: EV-D68 1962 prototype strain (Fermon); experiment: CPE inhibition assay in RD cells; format: cell-based, Human enterovirus D68; conditions: read-out: Mean EC50 ± SD
[2] = test system: EV-D68 strain USA-MO/18947; experiment: CPE inhibition assay in RD cells; format: cell-based, Human enterovirus D68; conditions: read-out: Mean EC50 ± SD
[3] = test system: EV-D68 strain USA-MO/18949; experiment: CPE inhibition assay in RD cells; format: cell-based, Human enterovirus D68; conditions: read-out: Mean EC50 ± SD
[4] = test system: EV-D68 strain USA-IL/18956; experiment: CPE inhibition assay in RD cells; format: cell-based, Human enterovirus D68; conditions: read-out: Mean EC50 ± SD
[5] = test system: four EV-D68 strains; experiment: microbe, parasite or virus in culture; format: cell-based, Human enterovirus D68; conditions: for activity against EV-D68 strains in words: highest concentration tested 10 μM; for EC50: read-out: EC50 values, range over all four EV-D68 strains
[6] = typical fluoxetine dosing; cited from earlier work
[7] = test system: EV-D68 Fermon strain; experiment: CPE inhibition assay over a range of virus doses; format: cell-based, Human enterovirus D68; conditions: Enterovirus D, EVD68; Fermon strain, 100-fold virus dose range, five half-log dilutions; upper end printed as >10 μM; data not shown; read-out: EC50 values over a range of virus doses
Procedure: Antiviral activity was assessed in a homogeneous cell-based assay that measured inhibition of viral cytopathic effect in human rhabdomyosarcoma cells (RD; ATCC CCL-136). The viruses included three representative EV-D68 strains from the 2014 outbreak (USA-MO/18947, USA-MO/18949, USA-IL/18956) (Brown et al. 2014. Seven Strains of Enterovirus D68 Detected in the United States during the 2014 Severe Respiratory Disease Outbreak. Genome Announc 2:e01201-01214), as well as the 1962 prototype strain (Fermon) (Schieble et al. 1967. A probable new human picornavirus associated with respiratory diseases. Am J Epidemiol 85:297-310). For the CPE inhibition assay, half-log10 dilutions of drug compound (10 μM to 0.001 μM) were combined with 100 CCID50 (50% cell culture infectious dose) of virus and added to monolayers of RD cells (5000 cells per well) in 384-well, white, flat-bottom microplates. Plates were incubated at 33° C. and 5% CO2 for five days, and cell viability was assessed using ATPLite® (Perkin Elmer, Waltham, Mass.) by adding 15 μL of cell lysis buffer and then 15 μL of substrate solution, following the manufacturer's recommendations.
In both studies, the methods were somewhat different from our approach. […] For the other compounds tested, similar EC50 values were observed across this same dose range. […]

[8] = Sialidase activity with fluorogenic substrate 4-MU-NANA; format: biochemical; conditions: 37° C.
Procedure: The sialidase activity of DAS181 was measured using the fluorogenic substrate 4-methylumbelliferyl-N-acetyl-α-D-neuraminic acid (4-MU-NANA; Sigma). One unit of sialidase is defined as the amount of enzyme that releases 10 nmol of MU from 4-MU-NANA in 10 minutes at 37° C. (50 mM CH3COOH—NaOH buffer, pH 5.5) in a reaction that contains 20 nmol of 4-MU-NANA in a 0.2 ml volume (Potier et al., Anal. Biochem., 94:287-296, 1979). The specific activity of DAS181 was determined to be 1,300 U/mg protein (0.77 μg DAS181 protein per unit of activity).

[9] = test system: enterovirus D68 strains (EV-D68); experiment: DAS181 specific anti-viral assay, text summary over all strains and conditions; format: cell-based, Human enterovirus D68; conditions: all conditions and all enterovirus strains tested
Procedure: (§1) As shown in the Table 2, DAS181 was tested to assess antiviral activity of the compound using a cell-based assay, and using enterovirus D68 strains (EV-D68). In this assay, using four specific EV-D68 strains, the compound was added at different time-points to each of the strains. The three time conditions tested were: (i) DAS181 preincubated with cells for 24 h before virus infection; (ii) DAS181 added simultaneously with virus; and (iii) DAS181 added 4 h post-infection. Fermon, an original prototypic strain, was used as control.

[10] = test system: EV-D68 strain Fermon; experiment: DAS181 specific anti-viral assay, time of addition; format: cell-based, Human enterovirus D68; conditions: read-out: DAS181 Mean EC50 ± SD
Procedure: as §1

[11] = test system: EV-D68 strain USA-IL/238139; experiment: DAS181 specific anti-viral assay, time of addition; format: cell-based, Human enterovirus D68; conditions: read-out: DAS181 Mean EC50 ± SD
Procedure: as §1

[12] = test system: EV-D68 strain USA-MO/238102; experiment: DAS181 specific anti-viral assay, time of addition; format: cell-based, Human enterovirus D68; conditions: read-out: DAS181 Mean EC50 ± SD
Procedure: as §1

[13] = test system: EV-D68 strain USA-MO/238121; experiment: DAS181 specific anti-viral assay, time of addition; format: cell-based, Human enterovirus D68; conditions: read-out: DAS181 Mean EC50 ± SD
Procedure: as §1

[14] = RD cells, 100 CCID50 virus, 33° C., five days, strain Fermon
[15] = RD cells, 100 CCID50 virus, 33° C., five days, strain USA-MO/18947
[16] = RD cells, 100 CCID50 virus, 33° C., five days, strain USA-MO/18949
[17] = RD cells, 100 CCID50 virus, 33° C., five days, strain USA-IL/18956
[18] = Enterovirus D, EVD68, 120 h, RD cells, 100 CCID50 virus, 33° C., five days, strain Fermon
[19] = Enterovirus D, EVD68, 120 h, RD cells, 100 CCID50 virus, 33° C., five days, strain USA-MO/18947
[20] = Enterovirus D, EVD68, 120 h, RD cells, 100 CCID50 virus, 33° C., five days, strain USA-MO/18949
[21] = Enterovirus D, EVD68, 120 h, RD cells, 100 CCID50 virus, 33° C., five days, strain USA-IL/18956
[22] = Enterovirus D, EVD68, RD, 120 h
[23] = 24 hr preincubation before infection
[24] = Drug addition 4 hr after infection
[25] = No preincubation (added simultaneously with virus)

## COc1ccc(OCc2ccc(COc3c(Cl)cccc3Cl)cc2)c(Cl)c1 [Pocapavir, pocapavir]
[1]; [14]
  EC50: > 10 µM
[2]; [15]
  EC50: > 10 µM
[3]; [16]
  EC50: > 10 µM
[4]; [17]
  EC50: > 10 µM
[5]; RD cells
  activity against EV-D68 strains in words: inactive

## NC(=O)c1nc(F)c[nH]c1=O [Favipiravir, favipiravir]
[1]; [18]
  EC50: > 10 µM
[2]; [19]
  EC50: > 10 µM
[3]; [20]
  EC50: > 10 µM
[4]; [21]
  EC50: > 10 µM

## C#CC[C@@H](C(=O)N[C@H](/C=C/C(=O)OCC)C[C@@H]1CCNC1=O)n1cccc(NC(=O)c2cc(C)on2)c1=O [V-7404]
[1]; [18]
  EC50: 0.0035 ± 0.0006 µM
[2]; [19]
  EC50: 0.026 ± 0.004 µM
[3]; [20]
  EC50: 0.027 ± 0.008 µM
[4]; [21]
  EC50: 0.024 ± 0.007 µM
[5]; Enterovirus D, EVD68, RD
  EC50: 1.5 to 5.1 nM

## CCOC(=O)c1c(CSc2ccccc2)n(C)c2cc(Br)c(O)c(CN(C)C)c12 [Arbidol]
[1]; [22]
  EC50: > 10 µM
[2]; [22]
  EC50: > 10 µM
[3]; [22]
  EC50: > 10 µM
[4]; [22]
  EC50: > 10 µM

## CNCCC(Oc1ccc(C(F)(F)F)cc1)c1ccccc1 (centres unmarked) [Fluoxetine, fluoxetine]
[6]
  maximal plasma levels: < 200 nM
[5]; RD cells
  activity against EV-D68 strains in words: significant activity

## CC(=O)Oc1ccccc1C(=O)Nc1ncc([N+](=O)[O-])s1 [Nitazoxanide, nitazoxanide]
[1]; [18]
  EC50: > 10 µM
[2]; [19]
  EC50: > 10 µM
[3]; [20]
  EC50: > 10 µM
[4]; [21]
  EC50: > 10 µM

## OC(c1cc(C(F)(F)F)nc2c(C(F)(F)F)cccc12)C1CCCCN1 (centres unmarked) [Mefloquine, mefloquine]
[1]; [18]
  EC50: > 10 µM
[2]; [19]
  EC50: > 10 µM
[3]; [20]
  EC50: > 10 µM
[4]; [21]
  EC50: > 10 µM

## COc1ccc(CC(C)NCC(O)c2ccc(O)c(NC=O)c2)cc1 (centres unmarked) [Formoterol furmarate]
[1]; [22]
  EC50: > 10 µM
[2]; [22]
  EC50: > 10 µM
[3]; [22]
  EC50: > 10 µM
[4]; [22]
  EC50: > 10 µM

## NC12CC3CC(CC(C3)C1)C2 [Amantidine]
[1]; [22]
  EC50: > 10 µM
[2]; [22]
  EC50: > 10 µM
[3]; [22]
  EC50: > 10 µM
[4]; [22]
  EC50: > 10 µM

## CCOC(=O)/C=C/[C@H](C[C@@H]1CCNC1=O)NC(=O)[C@@H](CC(=O)[C@@H](NC(=O)c1cc(C)on1)C(C)C)Cc1ccc(F)cc1 [Rupintrivir, rupintrivir]
[1]; [22]
  EC50: 0.002 ± 0.0005 µM
[2]; [22]
  EC50: 0.0046 ± 0.0016 µM
[3]; [22]
  EC50: 0.0015 ± 0.003 µM
[4]; [22]
  EC50: 0.0037 ± 0.007 µM
[5]; Enterovirus D, EVD68, RD
  EC50: 1.5 to 5.1 nM

## CCOC(=O)C1=C[C@@H](OC(CC)CC)[C@H](NC(C)=O)[C@@H](N)C1 [Oseltamivir]
[1]; [22]
  EC50: > 10 µM
[2]; [22]
  EC50: > 10 µM
[3]; [22]
  EC50: > 10 µM
[4]; [22]
  EC50: > 10 µM

## CCC(C)n1ncn(-c2ccc(N3CCN(c4ccc(OCC5COC(Cn6cncn6)(c6ccc(Cl)cc6Cl)O5)cc4)CC3)cc2)c1=O (centres unmarked) [Itraconazole, itraconazole]
[1]; [18]
  EC50: > 10 µM
[2]; [19]
  EC50: > 10 µM
[3]; [20]
  EC50: > 10 µM
[7]
  EC50: 0.29 to 10 µM
[4]; [21]
  EC50: > 10 µM
[5]; RD cells
  activity against EV-D68 strains in words: failed to inhibit

B1: DAS181: fusion protein of the catalytic domain of A. viscosus sialidase and a human amphiregulin GAG-binding anchoring domain (SEQ ID NOs: 15 and 16) (protein)
chain: MGDHPQATPAPAPDASTELPASMSQAQHLAANTATDNYRIPAITTAPNGDLLISYDERPKDNGNGGSDAPNPNHIVQRRSTDGGKTWSAPTYIHQGTETGKKVGYSDPSYVVDHQTGTIFNFHVKSYDQGWGGSRGGTDPENRGIIQAEVSTSTDNGWTWTHRTITADITKDKPWTARFAASGQGIQIQHGPHAGRLVQQYTIRTAGGAVQAVSVYSDDHGKTWQAGTPIGTGMDENKVVELSDGSLMLNSRASDGSGFRKVAHSTDGGQTWSEPVSDKNLPDSVDNAQIIRAFPNAAPDDPRAKVLLLSHSPNPRPWSRDRGTISMSCDDGASWTTSKVFHEPFVGYTTIAVQSDGSIGLLSEDAHNGADYGGIWYRNFTMNWLGEQCGQKPAKRKKKGGKNGKNRRNRKKKNPGDHPQATPAPAPDASTELPASMSQAQHLAANTATDNYRIPAITTAPNGDLLISYDERPKDNGNGGSDAPNPNHIVQRRSTDGGKTWSAPTYIHQGTETGKKVGYSDPSYVVDHQTGTIFNFHVKSYDQGWGGSRGGTDPENRGIIQAEVSTSTDNGWTWTHRTITADITKDKPWTARFAASGQGIQIQHGPHAGRLVQQYTIRTAGGAVQAVSVYSDDHGKTWQAGTPIGTGMDENKVVELSDGSLMLNSRASDGSGFRKVAHSTDGGQTWSEPVSDKNLPDSVDNAQIIRAFPNAAPDDPRAKVLLLSHSPNPRPWSRDRGTISMSCDDGASWTTSKVFHEPFVGYTTIAVQSDGSIGLLSEDAHNGADYGGIWYRNFTMNWLGEQCGQKPAKRKKKGGKNGKNRRNRKKKNP
[8]; pH 5.5
  DAS181 protein per unit of activity: 0.77 µg
[8]; pH 5.5, one unit releases 10 nmol MU in 10 minutes
  specific activity: 1,300 U/mg protein
[1]; [14]
  EC50: 0.0012 ± 0.0009 µM
[2]; [15]
  EC50: 0.0036 ± 0.0015 µM
[3]; [16]
  EC50: 0.0026 ± 0.0012 µM
[4]; [17]
  EC50: 0.004 ± 0.0016 µM
[9]
  potency in words: low micromolar potency
[5]; RD cells, all four EV-D68 strains
  EC50: 1.2 to 4 nM
[10]; [23]
  EC50: 1 ± 0.1 nM
[10]; [24]
  EC50: 3.6 ± 1.5 nM
[10]; [25]
  EC50: 1.2 ± 0.9 nM
[11]; [23]
  EC50: 3.2 ± 1 nM
[11]; [24]
  EC50: 4 ± 1.2 nM
[11]; [25]
  EC50: 4 ± 1.6 nM
[12]; [23]
  EC50: 2 ± 0.1 nM
[12]; [24]
  EC50: 4.3 ± 0.4 nM
[12]; [25]
  EC50: 3.6 ± 1.5 nM
[13]; [23]
  EC50: 2.7 ± 0.4 nM
[13]; [24]
  EC50: 3.4 ± 1 nM
[13]; [25]
  EC50: 2.6 ± 1.2 nM
